Experimental findings from patent US20260198495A1, “BINARY INSECTICIDE COMPOSITION AND USE THEREOF” (SHENYANG SINOCHEM AGROCHEMICALS R & D CO., LTD., priority 2022, published 2026) are described below.

Type in all cases: in vivo
For test [1], the system named is Nilaparvata lugens (Stal) nymphs. Nature of the test: Joint toxicity of I-72 + buprofezin, Example 52, Table 52. Conditions: A = compound I-72, B = buprofezin, potted-seedling spraying, 72 hours, read-out: LC50. The procedure: (§1) Test target: Nilaparvata lugens (Stal) nymphs, a sensitive strain reared indoors.
(§2) Preparation of the pesticide solution: according to different test requirements, the test samples were accurately weighed respectively with an electronic analytical balance. The technical pesticides were dissolved in acetone, and then diluted with 0.1% Tween 80 water into a series of pesticide solutions with a certain concentration gradient according to the experimental design dosage.
(§3) Experimental method: the activity of the mixture against the Nilaparvata lugens (Stal) nymphs was determined by adopting the potted-seedling spraying method. First, rice seedlings were planted in culture pots. Uniform spraying was performed with the pesticide solution in the order from low dosage to high dosage according to the experimental design, with 2 mL for each seedling. Then, Nilaparvata lugens nymphs of uniform size were transferred onto the rice seedlings, with 3 replicates for each treatment. In addition, a blank control was set up.
The treated test materials were placed in an observation room, and the temperature, humidity and illumination of the observation room could be adjusted as needed. The number of dead and live insects was investigated 72 hours later. […] Then, the co-toxicity coefficient of each ratio was calculated using the Sun Y-P method to evaluate the mixing effect, as in Example 1.

The subject of test [2] is Myzus persicae (Sulzer) nymphs. The test can be described thus: Joint toxicity of I-72 + fenvalerate, Example 46, Table 46. The note with it: A = compound I-72, B = fenvalerate, cabbage leaf spraying, 48 hours, read-out: LC50. The procedure: Test target: Myzus persicae (Sulzer) nymphs, a sensitive strain reared indoors.
as §2
Experimental method: first, cabbage leaves with uniform and consistent Myzus persicae (Sulzer) were selected, with about 30-40 insects on each leaf. Then, they were evenly sprayed with the pesticide solution in the order from low dosage to high dosage according to the experimental design, with 1.5 mL of the solution for each leaf and 3 replicates for each treatment. In addition, a blank control was set up.
(§4) The treated test materials were placed in an observation room, and the temperature, humidity and illumination of the observation room could be adjusted as needed. The number of dead and live insects was investigated 48 hours later. […] Then, the co-toxicity coefficient of each ratio was calculated using the Sun Y-P method to evaluate the mixing effect (the same as in Example 1).

Test [3] concerns adult Bemisia tabaci (Gennadius). The test can be described thus: Joint toxicity of I-72 + pyraclostrobin, cotton seedling spraying, Example 83, Table 83. Conditions: A = compound I-72, B = pyraclostrobin, cotton seedling spraying, 72 hours, read-out: LC50. The procedure: as §2
The corrected mortality rate was calculated using the Abbott's formula, and statistical analysis was performed with the DPS data processing software to obtain the toxicity regression equation and LC50 value of each single test pesticide and each mixture of different ratios.

Test [4] deals with Nilaparvata lugens (Stal) nymphs. The test can be described thus: Joint toxicity of I-72 + etofenprox, Example 44, Table 44. Conditions: A = compound I-72, B = etofenprox, potted rice seedling spraying, 72 hours, read-out: LC50. The procedure: as §1, §2, §3
The treated test materials were placed in an observation room, and the temperature, humidity and illumination of the observation room could be adjusted as needed. The number of dead and live insects was investigated 72 hours later. […] Then, the co-toxicity coefficient of each ratio was calculated using the Sun Y-P method to evaluate the mixing effect (the same as in Example 1).

Test [5] relates to Aphis gossypii Glover nymphs. Nature of the test: Joint toxicity of I-72 + nitenpyram, Example 67, Table 67. The note with it: A = compound I-72, B = nitenpyram, cotton leaf spraying, 48 hours, read-out: LC50. The protocol: Test target: Aphis gossypii Glover nymphs, a sensitive strain reared indoors.
as §2
Experimental method: first, cotton leaves with uniform and consistent Aphis gossypii were selected, with about 30-40 insects on each leaf. Then, they were evenly sprayed with the pesticide solution in the order from low dosage to high dosage according to the experimental design, with 1.5 mL for each leaf and 3 replicates for each treatment. In addition, a blank control was set up.
as §4

A further test relates to Aphis craccivora nymphs. Nature of the test: Synergism screening (Bliss) of I-72 + pyrethroid insecticides, Example 38, Table 38. The note with it: Aphis craccivora, single pesticide, broad bean seedling spraying, 48 hours, read-out: Measured mortality rate (%). The protocol:
Test target: Aphis craccivora nymphs, a sensitive strain reared indoors.
as §2
Experimental method: first, broad bean seedlings with uniform and consistent Aphis craccivora were selected, with about 30-40 insects on each seedling. Then, they were evenly sprayed with the pesticide solution in the order from low dosage to high dosage according to the experimental design, with 1.5 mL of the solution for each leaf and 3 replicates for each treatment. In addition, a blank control (CK) was set up.
The treated test materials were placed in an observation room, and the temperature, humidity and illumination of the observation room could be adjusted as needed. The number of dead and alive insects was investigated 48 hours later, and the corrected mortality rate was calculated using the Abbott's formula.
The synergism of the mixture was evaluated by adopting the Bliss method, as in Example 5.

By LC50 is commonly meant the concentration that kills 50% of the test population. A word on the mortality: it is the share of the test organisms that died. For `CN(C(=O)c1ccc2c(c1)OC(F)(F)O2)c1cccc(C(=O)Nc2c(Br)cc(C(F)(C(F)(F)F)C(F)(F)F)cc2OC(F)F)c1F` [Compound I-72], the LC50 in test [1] amounted to 253 µg/mL; in test [2], 8.2 µg/mL; in test [3], 4.02 µg/mL; in test [4], 282 µg/mL; in test [5] it was 3 µg/mL. In the test on Aphis craccivora nymphs (concentration 0.1 mg/L), the mortality at 0.1 µg/mL worked out at 11.9%. For the same compound, the mortality at 3 µg/mL with Aphis craccivora nymphs (concentration 3 mg/L) worked out at 60.6%.
